Experimental findings from patent US6600035B1, “6-(substituted methylene) penems and intermediates” (SMithKline Beecham p.l.c., priority 1992, dated 2003) are described below.

Assay [1] concerns the target TEM-1 β-lactamase enzyme (Escherichia coli, UniProt P62593). Put plainly: β-lactamase inhibitory activity: 50% inhibition of β-lactam hydrolysis, TEM-1. It is filed as biochemical.
Assay [2] addresses P. mirabilis β-lactamase enzyme. Kind of assay: β-lactamase inhibitory activity: 50% inhibition of β-lactam hydrolysis, P. mirabilis. It is filed as biochemical. As to conditions: read-out: I50 (concentration required to achieve 50% inhibition of β-lactam hydrolysis).
The target of assay [3] is BC II β-lactamase enzyme (Bacillus cereus, UniProt P04190). Put plainly: β-lactamase inhibitory activity: 50% inhibition of β-lactam hydrolysis, BC II. It is filed as biochemical.
Assay [4] deals with P99 β-lactamase enzyme (Enterobacter cloacae, UniProt P05364). Kind of assay: biochemical.
For assay [5], the target named is PC1 β-lactamase enzyme (Staphylococcus aureus, UniProt P00807). Kind of assay: biochemical.
Assay [6] concerns the target OXA-1 β-lactamase enzyme (Escherichia coli, UniProt P13661). Put plainly: biochemical.

A value given as a limit tells only on which side of the number the result lay.

Chain of OXA-1 β-lactamase enzyme (P13661 26-276): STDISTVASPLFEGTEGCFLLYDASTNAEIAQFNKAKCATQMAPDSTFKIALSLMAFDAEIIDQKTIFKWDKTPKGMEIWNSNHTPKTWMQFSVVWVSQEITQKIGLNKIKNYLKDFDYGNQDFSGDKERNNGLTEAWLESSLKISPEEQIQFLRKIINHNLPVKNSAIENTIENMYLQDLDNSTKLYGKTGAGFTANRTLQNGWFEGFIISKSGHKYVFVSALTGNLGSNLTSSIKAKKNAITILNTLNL
Chain of PC1 β-lactamase enzyme (P00807 25-281): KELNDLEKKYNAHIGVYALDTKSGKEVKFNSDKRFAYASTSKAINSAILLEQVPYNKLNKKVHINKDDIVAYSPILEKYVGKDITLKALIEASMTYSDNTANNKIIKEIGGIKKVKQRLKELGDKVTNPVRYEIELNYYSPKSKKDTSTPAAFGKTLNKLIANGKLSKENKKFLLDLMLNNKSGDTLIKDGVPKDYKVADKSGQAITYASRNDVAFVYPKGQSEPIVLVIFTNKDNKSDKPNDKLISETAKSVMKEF
Chain of BC II β-lactamase enzyme (P04190 31-257): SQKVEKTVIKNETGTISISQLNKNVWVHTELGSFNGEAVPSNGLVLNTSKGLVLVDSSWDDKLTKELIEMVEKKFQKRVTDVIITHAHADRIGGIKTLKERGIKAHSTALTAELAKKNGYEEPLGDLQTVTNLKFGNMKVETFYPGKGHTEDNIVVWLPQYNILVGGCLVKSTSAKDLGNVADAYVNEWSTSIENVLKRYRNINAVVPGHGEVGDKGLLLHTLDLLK
Chain of P99 β-lactamase enzyme (P05364 21-381): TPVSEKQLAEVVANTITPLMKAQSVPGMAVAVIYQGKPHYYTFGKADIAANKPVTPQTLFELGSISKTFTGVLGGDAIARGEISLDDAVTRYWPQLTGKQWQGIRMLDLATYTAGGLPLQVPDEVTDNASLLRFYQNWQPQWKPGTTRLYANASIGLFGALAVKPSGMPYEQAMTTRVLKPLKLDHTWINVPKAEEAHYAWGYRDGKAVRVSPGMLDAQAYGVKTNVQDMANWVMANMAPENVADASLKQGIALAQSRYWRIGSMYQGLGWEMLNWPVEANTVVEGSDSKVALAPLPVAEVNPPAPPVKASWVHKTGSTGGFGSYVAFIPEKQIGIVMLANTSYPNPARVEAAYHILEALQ
Chain of TEM-1 β-lactamase enzyme (P62593 24-286 limits assumed): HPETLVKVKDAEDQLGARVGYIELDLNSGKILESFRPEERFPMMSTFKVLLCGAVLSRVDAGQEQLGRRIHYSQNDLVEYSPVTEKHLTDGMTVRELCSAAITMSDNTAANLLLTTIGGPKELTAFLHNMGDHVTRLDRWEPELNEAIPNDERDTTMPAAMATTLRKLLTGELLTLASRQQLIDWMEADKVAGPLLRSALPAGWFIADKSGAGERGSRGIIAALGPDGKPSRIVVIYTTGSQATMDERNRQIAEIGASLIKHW

`O=C(O)C1=CS[C@@H]2/C(=C\c3cn4c(n3)SCC4)C(=O)N12` [Example 1, Sodium (5R)-6[(Z)-(2,3-dihydroimidazo[2,1-b]thiazol-6-yl)methylene]-penem-3-carboxylate]: the IC50 in assay [1] was 10 nM; in assay [2], 10 nM; in assay [3], 48600 nM; in assay [4] it was less than 5 nM; in assay [5] it was 10 nM; in assay [6] it was 10 nM.
